Laboratory results from patent US6987132B1, “Enediyne compounds and methods related thereto” (Advanced Research and Technology Institute, Inc., priority 2000, dated 2006).

Key:
[1] = Bergman enediyne cyclization temperature by differential scanning calorimetry (DSC) on neat materials; assay type: physicochemical; settings: for Cyclization Temperature: free ligand, neat material, DSC, heating rate 10° C. min^−1; for Bergman cyclization temperature: comparison enediynes named in text, method not stated for them
Method: All preparations were carried out in an inert atmosphere (nitrogen) using Schlenk and drybox techniques. Chemicals used in the syntheses were of the highest purity available from Aldrich Chemical Company and used as received. Dichloromethane was dried and distilled from calcium hydride. The organic compounds were purified by flash chromatography with 60 Å Silica gel ([…]) using HPLC grade solvents. ^1H and ^13C NMR were recorded on VXR 400 MHz NMR spectrometer using the residual proton resonance as an internal reference. The multiplicity of the ^13C signals was determined by the DEPT technique. EI and FAB MS spectra were acquired on a Kratos MS-80 mass spectrometer that was interfaced with a Kratos DS90 data system. Differential scanning calorimetry traces were recorded on a General V4.1C DuPont 910 DSC differential scanning calorimeter coupled to a Dupont Thermal Analyst 2100 at a heating rate of 10° C. min^−1.

[2] = Reactivity of enediyne ligand upon addition of metal salts at room temperature; assay type: physicochemical
[3] = Thermal cyclization temperature and stability of free ligands in solution; settings: for could tolerate heating to (temperature): free ligand in solution; for thermal cyclization temperature in solution: absence of metal
[4] = Pseudo first-order rate constant and half-life of thermal reactivity in DMSO by 1H NMR; assay type: physicochemical; settings: 65° C., 20-fold cyclohexadiene
Source text: As is often observed in solution cyclization reactions of enediynes, a series of products was produced, which in this case included di-substituted benzenes, and as such no dominant species could be isolated from the reaction.

Structure (SMILES)	Cyclization Temperature [1]	could tolerate heating to (temperature) [3]	thermal cyclization temperature in solution [3]	Bergman cyclization temperature [1]	further results
C(#CCN=Cc1ccccn1)/C=C\C#CCN=Cc1ccccn1 (stereo in doubt) [Compound 14, (Z)-N,N′-Bis[1-pyridin-2-yl-meth-(E)-ylidene]oct-4-ene-2,6-diyne-1,8-diamine]	100 °C	about 50 °C	about 55 °C	–	time to reaction completion ([2]; addition of MgCl2, no additional heating): 2 h; time to reaction completion ([2]; addition of zinc acetate): 0.083 h; observation upon addition of Zn(II) or Cu(II) ([2]; room temperature): turned black instantaneously
NCC#CC=CC#CCN [Compound 12, 1,8-diaminooct-4-ene-2,6-diyne]	106 °C	about 50 °C	about 65 °C	–	decrease in the Bergman cyclization temperature ([1]; relative to the preceding compound of the series 4, 9, 12): 37 °C; pseudo first-order rate constant kobs [4]: 0.0416 h⁻¹
CN(C)CC#CC=CC#CCN(C)C [Compound 4, 1,8-bis(dimethylamino)oct-4-ene-2,6-diyne]	186 °C	–	–	–	–
C(#Cc1cccnc1)C=CC#Cc1cccnc1 [1,6-bis(pyridine-3)hex-3-ene-1,5-diyne, reference compound]	–	–	–	195 °C	–
C(#CCOc1cccnc1)C=CC#CCOc1cccnc1 [bpod, 1,8-bis(pyridine-3-oxy)oct-4-ene-2,6-diyne, reference compound]	–	–	–	136 °C	–
